Values joined by “and” are separate entries in the source; they are usually repeats but may differ in a detail not shown here. Identical values can stand only once. Inconclusive results and toxic doses are left out.
System: BDF1 mice, P288 leukemia ip, survival T/C
Experiment: NCI In Vivo Anticancer Drug Screen. Data for tumor model P288 Lymphocytic Leukemia (intraperitoneal) in B6D2F1 (BDF1) mice
Settings: endpoint: survival time, mean or median, higher = longer survival
Description: The antitumor activity of compounds was measured in mice bearing transplantable tumors. Survival or tumor size were measured and the results are expressed as the measurement made in the treated group (T) divided by the measurement made in the vehicle treated control group (C). The tumor model used in this assay is P288 Lymphocytic Leukemia (intraperitoneal) in B6D2F1 (BDF1) mice

[1] = dose: 12.5 mg/kg/injection, schedule: Q01DX010 (sc), vehicle: steriod suspending solution
[2] = dose: 25.0 mg/kg/injection, schedule: Q01DX010 (sc), vehicle: steriod suspending solution
[3] = dose: 50.0 mg/kg/injection, schedule: Q01DX010 (sc), vehicle: steriod suspending solution
[4] = dose: 100.0 mg/kg/injection, schedule: Q01DX010 (sc), vehicle: steriod suspending solution
[5] = dose: 10.0 mg/kg/injection, schedule: Q01DX010 (ip), vehicle: saline
[6] = dose: 20.0 mg/kg/injection, schedule: Q01DX010 (ip), vehicle: saline

CC[C@]1(O)C[C@H]2CN(CCc3c([nH]c4ccccc34)[C@@](C(=O)OC)(c3cc4c(cc3OC)N(C=O)[C@H]3[C@@](O)(C(=O)OC)[C@H](OC(C)=O)[C@]5(CC)C=CCN6CC[C@]43[C@@H]65)C2)C1
T/C (dose: 0.06 mg/kg/injection, schedule: Q01DX Z (ip), vehicle: water): 102 % of control | T/C (dose: 0.12 mg/kg/injection, schedule: Q01DX Z (ip), vehicle: water): 109 % of control | T/C (dose: 0.25 mg/kg/injection, schedule: Q01DX Z (ip), vehicle: water): 116 % of control | T/C (dose: 0.5 mg/kg/injection, schedule: Q01DX Z (ip), vehicle: water): 120 % of control and 101 % of control

C1CN1c1nc(N2CC2)nc(N2CC2)n1
T/C (dose: 0.13 mg/kg/injection, schedule: Q01DX010 (ip), vehicle: saline): 88 % of control | T/C (dose: 0.25 mg/kg/injection, schedule: Q01DX010 (ip), vehicle: saline): 105 % of control and 88 % of control | T/C (dose: 0.5 mg/kg/injection, schedule: Q01DX010 (ip), vehicle: saline): 111 % of control and 95 % of control | T/C (dose: 1.0 mg/kg/injection, schedule: Q01DX010 (ip), vehicle: saline): 94 % of control

O=C(Nc1ccc(NC(=O)Nc2cccc(C3=NCCN3)c2)cc1)Nc1cccc(C2=NCCN2)c1
T/C (dose: 60.0 mg/kg/injection, schedule: Q01DX010 (ip), vehicle: saline): 163 % of control and 168 % of control | T/C (dose: 120.0 mg/kg/injection, schedule: Q01DX010 (ip), vehicle: saline): 173 % of control and 210 % of control | T/C (dose: 240.0 mg/kg/injection, schedule: Q01DX010 (ip), vehicle: saline): 221 % of control | T/C (dose: 480.0 mg/kg/injection, schedule: Q01DX010 (ip), vehicle: saline): 152 % of control

O=C(Nc1ccc(NC2=NCCN2)cc1)c1ccc(C(=O)Nc2ccc(NC3=NCCN3)cc2)cc1
T/C (dose: 0.5 mg/kg/injection, schedule: Q01DX Z (ip), vehicle: saline): 97 % of control | T/C (dose: 1.0 mg/kg/injection, schedule: Q01DX Z (ip), vehicle: saline): 109 % of control | T/C (dose: 2.0 mg/kg/injection, schedule: Q01DX010 (ip), vehicle: saline): 157 % of control and 184 % of control | T/C (dose: 2.0 mg/kg/injection, schedule: Q01DX Z (ip), vehicle: saline): 114 % of control | T/C (dose: 4.0 mg/kg/injection, schedule: Q01DX010 (ip), vehicle: saline): 189 % of control and 194 % of control | T/C (dose: 4.0 mg/kg/injection, schedule: Q01DX Z (ip), vehicle: saline): 152 % of control | T/C (dose: 8.0 mg/kg/injection, schedule: Q01DX010 (ip), vehicle: saline): 247 % of control and 284 % of control | T/C (dose: 8.0 mg/kg/injection, schedule: Q01DX Z (ip), vehicle: saline): 203 % of control | T/C (dose: 16.0 mg/kg/injection, schedule: Q01DX010 (ip), vehicle: saline): 115 % of control | T/C (dose: 32.0 mg/kg/injection, schedule: Q01DX Z (ip), vehicle: saline): 105 % of control

CC(=O)O[C@]1(C(C)=O)CC[C@H]2[C@@H]3C[C@H](C)C4=CC(=O)C=C[C@]4(C)[C@@]3(F)[C@@H](O)C[C@@]21C
T/C (dose: 2.5 mg/kg/injection, schedule: Q01DX Z (sc), vehicle: steriod suspending solution): 95 % of control | T/C (dose: 5.0 mg/kg/injection, schedule: Q01DX Z (sc), vehicle: steriod suspending solution): 97 % of control | T/C (dose: 10.0 mg/kg/injection, schedule: Q01DX Z (sc), vehicle: steriod suspending solution): 101 % of control | T/C [1]: 100 % of control | T/C (dose: 20.0 mg/kg/injection, schedule: Q01DX Z (sc), vehicle: steriod suspending solution): 107 % of control | T/C [2]: 106 % of control | T/C (dose: 40.0 mg/kg/injection, schedule: Q01DX Z (sc), vehicle: steriod suspending solution): 118 % of control | T/C [3]: 112 % of control | T/C (dose: 80.0 mg/kg/injection, schedule: Q01DX Z (sc), vehicle: steriod suspending solution): 100 % of control | T/C [4]: 93 % of control | T/C (dose: 160.0 mg/kg/injection, schedule: Q01DX Z (sc), vehicle: steriod suspending solution): 90 % of control

O=P1(N(CCCl)CCCl)NCCCO1 (stereo not drawn)
T/C (dose: 11.3 mg/kg/injection, schedule: Q01DX010 (ip), vehicle: saline): 119 % of control | T/C (dose: 12.5 mg/kg/injection, schedule: Q01DX Z (ip), vehicle: saline): 102 % of control and 106 % of control | T/C (dose: 25.0 mg/kg/injection, schedule: Q01DX Z (ip), vehicle: saline): 113 % of control and 116 % of control | T/C (dose: 45.0 mg/kg/injection, schedule: Q01DX010 (ip), vehicle: saline): 150 % of control and 198 % of control | T/C (dose: 50.0 mg/kg/injection, schedule: Q01DX Z (ip), vehicle: saline): 112 % of control and 113 % of control | T/C (dose: 62.5 mg/kg/injection, schedule: Q01DX Z (ip), vehicle: saline): 124 % of control | T/C (dose: 90.0 mg/kg/injection, schedule: Q01DX010 (ip), vehicle: saline): 158 % of control | T/C (dose: 100.0 mg/kg/injection, schedule: Q01DX Z (ip), vehicle: saline): 152 % of control | T/C (dose: 125.0 mg/kg/injection, schedule: Q01DX Z (ip), vehicle: saline): 113 % of control | T/C (dose: 180.0 mg/kg/injection, schedule: Q01DX010 (ip), vehicle: saline): 91 % of control | T/C (dose: 200.0 mg/kg/injection, schedule: Q01DX Z (ip), vehicle: saline): 86 % of control and 95 % of control

C[C@@H]1C[C@@H]([C@H](O)CC2CC(=O)NC(=O)C2)C(=O)[C@@H](C)C1
T/C [5]: 94 % of control | T/C (dose: 12.5 mg/kg/injection, schedule: Q01DX Z (ip), vehicle: water): 94 % of control | T/C [6]: 94 % of control | T/C (dose: 25.0 mg/kg/injection, schedule: Q01DX Z (ip), vehicle: water): 98 % of control | T/C (dose: 40.0 mg/kg/injection, schedule: Q01DX010 (ip), vehicle: saline): 105 % of control

Cc1n[nH]c(=O)[nH]c1=O
T/C (dose: 50.0 mg/kg/injection, schedule: Q01DX Z (ip), vehicle: other): 104 % of control | T/C (dose: 100.0 mg/kg/injection, schedule: Q01DX Z (ip), vehicle: other): 101 % of control | T/C (dose: 200.0 mg/kg/injection, schedule: Q01DX Z (ip), vehicle: other): 101 % of control and 110 % of control | T/C (dose: 400.0 mg/kg/injection, schedule: Q01DX Z (ip), vehicle: other): 101 % of control and 110 % of control | T/C (dose: 800.0 mg/kg/injection, schedule: Q01DX Z (ip), vehicle: other): 97 % of control

CCCCNc1ncnc2c1cnn2C
T/C (dose: 0.22 mg/kg/injection, schedule: Q01DX Z (ip), vehicle: carboxymethylcellulose (CMC)): 90 % of control | T/C (dose: 0.45 mg/kg/injection, schedule: Q01DX Z (ip), vehicle: carboxymethylcellulose (CMC)): 90 % of control | T/C (dose: 0.9 mg/kg/injection, schedule: Q01DX Z (ip), vehicle: carboxymethylcellulose (CMC)): 90 % of control

C[C@]12C=CC(=O)C=C1CC[C@@H]1[C@@H]2C(=O)C[C@@]2(C)[C@H]1CC[C@]2(O)C(=O)CO
T/C [1]: 105 % of control | T/C [2]: 103 % of control | T/C [3]: 111 % of control and 87 % of control | T/C (dose: 50.0 mg/kg/injection, schedule: Q01DX Z (sc), vehicle: steriod suspending solution): 102 % of control and 100 % of control | T/C [4]: 100 % of control | T/C (dose: 100.0 mg/kg/injection, schedule: Q01DX Z (sc), vehicle: steriod suspending solution): 102 % of control and 111 % of control | T/C (dose: 200.0 mg/kg/injection, schedule: Q01DX010 (sc), vehicle: steriod suspending solution): 97 % of control | T/C (dose: 200.0 mg/kg/injection, schedule: Q01DX Z (sc), vehicle: steriod suspending solution): 90 % of control and 100 % of control | T/C (dose: 400.0 mg/kg/injection, schedule: Q01DX Z (sc), vehicle: steriod suspending solution): 94 % of control

Cn1cnc([N+](=O)[O-])c1Sc1nc(N)nc2nc[nH]c12
T/C (dose: 0.25 mg/kg/injection, schedule: Q01DX Z (ip), vehicle: carboxymethylcellulose (CMC)): 107 % of control | T/C (dose: 0.5 mg/kg/injection, schedule: Q01DX Z (ip), vehicle: carboxymethylcellulose (CMC)): 94 % of control | T/C (dose: 1.0 mg/kg/injection, schedule: Q01DX Z (ip), vehicle: carboxymethylcellulose (CMC)): 113 % of control | T/C (dose: 2.0 mg/kg/injection, schedule: Q01DX Z (ip), vehicle: carboxymethylcellulose (CMC)): 105 % of control

O=c1[nH]cc(F)c(=O)[nH]1
T/C (dose: 5.0 mg/kg/injection, schedule: Q01DX010 (ip), vehicle: saline): 115 % of control and 118 % of control and 100 % of control | T/C [5]: 122 % of control | T/C [6]: 155 % of control and 190 % of control and 193 % of control
